Patent US10508111B2, “6-[5-amino-6-(2-ethoxyethoxy)-imidazo[4,5-B]pyridin-3-yl]-nicotinonitrile derivatives and their use as IRAK inhibitors” (GALAPAGOS NV, priority 2015, dated 2019)

How the values were obtained:
[1] = biological target: T1, ABL (Homo sapiens, UniProt P00519); assay: Kinase selectivity profiling (focused panel), radioactive filter plate assay: ABL; format: biochemical; conditions: PolyGT substrate, 0.5 μM ATP, 60 min
T1 construct: purchased Life Technologies P3049
Experimental: (§1) The purpose of this assay is to determine the activity and selectivity of a compound of the invention on a selected range of human kinases which may result in undesirable side-effects when inhibited (Dy & Adjei 2013; Force & Kolaja 2011).
(§2) The IC50 value for off-target kinases is determined in radioactive filter plate assays. The principle of the assays consists in the measurement of incorporated ^33P into a peptide substrate upon phosphorylation by the kinase enzyme using [γ-^33P]ATP and ATP. Unincorporated ^33P is removed by loading the samples on a filter plate (using a harvester, PerkinElmer) and 6 subsequent washing steps. Incorporated ^33P in the peptide substrate is measured by a scintillation counter (Topcount, PerkinElmer) after addition of MicroScint™-20 (PerkinElmer, 6013621) to the filter plates.
(§3) 5 μL of a water dilution series of test compound (starting from 20 μM or 6.6 μM highest concentration), from a 100% DMSO stock solution, 1/5 dilution, is added to the wells (final DMSO concentration of 1% in reaction assay). Enzyme and peptide substrate are used at optimized concentrations (cf. Table VI). The enzyme and substrate are diluted in assay buffer to a total volume of 11 μL. The reaction is started by addition of 9 μL of ATP+[γ-^33P]ATP, diluted in the same buffer as enzyme and substrate. The mixture is incubated at 30° C. The reaction is terminated by adding 25 μL of 150 mM phosphoric acid. Samples are transferred to filter plates and incorporated radioactivity is measured using a scintillation counter.
The incubation time, assay buffer composition, and concentrations of ATP, enzyme and substrate are reported in Table VI for example kinase off-target assays.
10 μM staurosporine (1% DMSO) is used as positive control (100% inhibition); vehicle (water+1% DMSO) as negative control (0% inhibition).

[2] = biological target: T2, Aurora B (Homo sapiens, UniProt Q96GD4); assay: Kinase selectivity profiling (focused panel), radioactive filter plate assay: Aurora B; format: biochemical; conditions: Histone H3 peptide, 1.3 μM ATP, 90 min
T2 construct: purchased Carna BioSciences 05-102
Experimental: as §1, §2
as §3, with “The reaction is started by addition of 9 μL of ATP+[γ-^33P]ATP, diluted in the same buffer as enzyme and substrate. The mixture is incubated at 30° C. The reaction is terminated by adding 25 μL of 150 mM phosphoric acid.” left out, “counter. […]” for “counter.”

T2 sequence (Q96GD4 whole entry): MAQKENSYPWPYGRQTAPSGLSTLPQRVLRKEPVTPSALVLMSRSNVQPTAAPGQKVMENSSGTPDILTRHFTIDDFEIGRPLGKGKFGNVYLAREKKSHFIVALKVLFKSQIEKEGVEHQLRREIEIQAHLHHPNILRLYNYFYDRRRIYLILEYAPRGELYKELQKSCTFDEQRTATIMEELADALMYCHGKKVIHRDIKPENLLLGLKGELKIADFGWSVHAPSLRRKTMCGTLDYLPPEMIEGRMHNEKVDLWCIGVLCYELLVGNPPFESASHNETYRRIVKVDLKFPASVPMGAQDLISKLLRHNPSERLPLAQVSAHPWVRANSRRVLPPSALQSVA
T2 sequence (Q9NQS7 803-918 partner limits assumed): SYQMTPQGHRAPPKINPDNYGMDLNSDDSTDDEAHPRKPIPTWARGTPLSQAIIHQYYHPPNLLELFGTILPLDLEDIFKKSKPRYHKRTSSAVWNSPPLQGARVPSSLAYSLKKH
T1 sequence (P00519 whole entry): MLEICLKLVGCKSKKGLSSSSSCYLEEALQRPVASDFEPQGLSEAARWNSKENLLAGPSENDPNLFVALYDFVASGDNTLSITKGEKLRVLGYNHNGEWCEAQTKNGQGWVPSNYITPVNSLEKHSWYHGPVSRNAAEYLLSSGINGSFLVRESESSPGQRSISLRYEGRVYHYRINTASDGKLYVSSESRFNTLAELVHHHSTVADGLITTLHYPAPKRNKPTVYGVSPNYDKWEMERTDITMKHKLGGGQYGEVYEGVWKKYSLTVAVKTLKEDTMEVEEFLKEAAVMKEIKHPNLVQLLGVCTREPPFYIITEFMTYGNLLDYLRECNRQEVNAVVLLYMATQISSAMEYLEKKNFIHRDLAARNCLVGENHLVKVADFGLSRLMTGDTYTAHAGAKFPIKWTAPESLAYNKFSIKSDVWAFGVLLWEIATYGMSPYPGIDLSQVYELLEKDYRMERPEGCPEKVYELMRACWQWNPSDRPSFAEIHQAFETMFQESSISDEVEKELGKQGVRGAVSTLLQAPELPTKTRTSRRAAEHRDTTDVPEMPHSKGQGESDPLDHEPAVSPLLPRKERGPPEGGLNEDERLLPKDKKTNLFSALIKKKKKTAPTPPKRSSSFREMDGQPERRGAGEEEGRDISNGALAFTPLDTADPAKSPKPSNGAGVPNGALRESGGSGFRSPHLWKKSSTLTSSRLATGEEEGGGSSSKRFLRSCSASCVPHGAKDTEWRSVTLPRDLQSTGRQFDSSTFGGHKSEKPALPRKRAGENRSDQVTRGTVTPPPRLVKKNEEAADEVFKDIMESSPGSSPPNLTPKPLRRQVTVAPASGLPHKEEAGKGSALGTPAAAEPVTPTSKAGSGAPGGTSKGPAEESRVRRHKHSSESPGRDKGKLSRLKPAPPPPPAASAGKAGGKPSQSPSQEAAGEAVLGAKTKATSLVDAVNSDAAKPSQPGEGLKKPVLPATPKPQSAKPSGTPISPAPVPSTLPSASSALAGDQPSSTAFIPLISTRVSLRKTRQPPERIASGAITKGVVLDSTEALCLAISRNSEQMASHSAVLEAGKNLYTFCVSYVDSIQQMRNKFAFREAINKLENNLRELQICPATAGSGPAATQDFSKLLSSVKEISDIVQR

## C[C@]1(O)CC[C@@H](Nc2nc3c(cc2OCCOCCO)ncn3-c2ccc(C#N)cn2)CC1 [Compound 12, 6-[6-[2-(2-hydroxyethoxy)ethoxy]-5-[((cis-1,4)-4-hydroxy-4-methylcyclohexyl)amino]imidazo[4,5-b]pyridin-3-yl]pyridine-3-carbonitrile]
[1]
  IC50: 138 nM
[2]
  IC50: > 1880 nM
